Data as given in ChEMBL document CHEMBL3525929, “Paraoxonase 1 as a major bioactivating hydrolase for olmesartan medoxomil in human blood circulation: molecular identification and contribution to plasma metabolism” (Drug Metab Dispos, 2012).
One block for each molecule: values may come before it.

Assays:
[1] = Prodrug conversion in recombinant human PON1 192QQ mutant expressed in FreeStyle 293-F cells assessed as hydrolysis by single-enzyme Michaelis-Menten model; format: ADME, cell-based
[2] = Prodrug conversion in recombinant human PON1 192RR mutant expressed in FreeStyle 293-F cells assessed as hydrolysis measured per mg of protein at 10 uM in presence of Mg2+; format: ADME, cell-based
[3] = Prodrug conversion in recombinant human PON1 192QQ mutant expressed in FreeStyle 293-F cells assessed as hydrolysis measured per mg of protein at 10 uM in presence of Zn2+; format: ADME, cell-based
[4] = Prodrug conversion in recombinant human PON1 192RR mutant expressed in FreeStyle 293-F cells assessed as hydrolysis measured per mg of protein at 10 uM in presence of Zn2+; format: ADME, cell-based
[5] = Prodrug conversion in human serum HDL assessed as distribution of hydrolyzing activity measured per ml of serum at 10 uM in presence of Tris-HCl/Ca2+; format: ADME, cell-free
Plasma [6] = experiment: Prodrug conversion in human plasma assessed as hydrolysis by single-enzyme Michaelis-Menten model; format: ADME, cell-free
[7] = Ratio of Vmax to Km in recombinant human PON1 192QQ mutant expressed in FreeStyle 293-F cells assessed as hydrolysis measured per mg of protein by single-enzyme Michaelis-Menten model; format: ADME, cell-based
[8] = Prodrug conversion in human serum LDL assessed as distribution of hydrolyzing activity measured per ml of serum at 10 uM in presence of Tris-HCl/Ca2+; format: ADME, cell-free
Plasma [9] = experiment: Prodrug conversion in human plasma assessed as hydrolysis measured per mg of protein at 10 uM in presence of Ca2+; format: ADME, cell-free
[10] = Prodrug conversion in human serum VLDL and chylomicron assessed as conversion velocity at 10 uM measured per mg of protein in presence of Tris-HCl/Ca2+; format: ADME, cell-free
[11] = Prodrug conversion in recombinant human PON1 192QQ mutant expressed in FreeStyle 293-F cells assessed as hydrolysis measured per mg of protein at 10 uM in presence of Mg2+; format: ADME, cell-based
[12] = Prodrug conversion in recombinant human PON1 192RR mutant expressed in FreeStyle 293-F cells assessed as hydrolysis by single-enzyme Michaelis-Menten model; format: ADME, cell-based
[13] = Prodrug conversion in human serum LPDS assessed as conversion velocity per mg of protein at 10 uM in presence of KPB; format: ADME, cell-free
[14] = Prodrug conversion in recombinant human PON1 192QQ mutant expressed in FreeStyle 293-F cells assessed as hydrolysis measured per mg of protein at 10 uM in presence of Ca2+; format: ADME, cell-based
Plasma [15] = experiment: Prodrug conversion in human plasma assessed as hydrolysis measured per mg of protein at 10 uM in presence of Zn2+; format: ADME, cell-free
[16] = Prodrug conversion in human serum LPDS assessed as conversion velocity per mg of protein at 10 uM in presence of Tris-HCl/Ca2+; format: ADME, cell-free
Plasma [17] = experiment: Prodrug conversion in human plasma assessed as hydrolysis measured per mg of protein at 10 uM in presence of Mg2+; format: ADME, cell-free
Albumin [18] = target: T1, Albumin (Homo sapiens, UniProt P02768); experiment: Prodrug conversion in human serum albumin assessed as hydrolysis measured per mg of protein at 10 uM in presence of Mg2+; format: ADME
[19] = Prodrug conversion in human serum VLDL and chylomicron assessed as distribution of hydrolyzing activity measured per ml of serum at 10 uM in presence of Tris-HCl/Ca2+; format: ADME, cell-free
Plasma [20] = experiment: Ratio of Vmax to Km in human plasma assessed as hydrolysis measured per mg of protein by single-enzyme Michaelis-Menten model; format: ADME
Albumin [21] = target: T1, Albumin; experiment: Prodrug conversion in human serum albumin assessed as hydrolysis measured per mg of protein at 10 uM in presence of Ca2+; format: ADME
[22] = Prodrug conversion in human serum HDL assessed as conversion velocity per mg of protein at 10 uM in presence of Tris-HCl/Ca2+; format: ADME, cell-free
Albumin [23] = target: T1, Albumin; experiment: Ratio of Vmax to Km in human serum albumin assessed as hydrolysis measured per mg of protein by single-enzyme Michaelis-Menten model; format: ADME
[24] = Prodrug conversion in recombinant human PON1 192RR mutant expressed in FreeStyle 293-F cells assessed as hydrolysis measured per mg of protein at 10 uM in presence of Ca2+; format: ADME, cell-based
Plasma [25] = experiment: Prodrug conversion in human plasma assessed as hydrolysis in presence of 4 fold anti-PON1 IgG/plasma ratio; format: ADME
[26] = Ratio of Vmax to Km in recombinant human PON1 192RR mutant expressed in FreeStyle 293-F cells assessed as hydrolysis measured per mg of protein by single-enzyme Michaelis-Menten model; format: ADME, cell-based
Plasma [27] = experiment: Prodrug conversion in human plasma assessed as hydrolysis measured per mg of protein by single-enzyme Michaelis-Menten model; format: ADME, cell-free
[28] = Prodrug conversion in recombinant human PON1 192RR mutant expressed in FreeStyle 293-F cells measured per mg of protein by single-enzyme Michaelis-Menten model; format: ADME, cell-based
Albumin [29] = target: T1, Albumin; experiment: Prodrug conversion in human serum albumin assessed as hydrolysis measured per mg of protein at 10 uM in presence of Zn2+; format: ADME
[30] = Prodrug conversion in human serum LDL assessed as conversion velocity at 10 uM measured per mg of protein in presence of Tris-HCl/Ca2+; format: ADME, cell-free
[31] = Prodrug conversion in human serum LPDS assessed as distribution of hydrolyzing activity measured per ml of serum at 10 uM in presence of KPB; format: ADME, cell-free
[32] = Prodrug conversion in human serum LPDS assessed as distribution of hydrolyzing activity measured per ml of serum at 10 uM in presence of Tris-HCl/Ca2+; format: ADME, cell-free
[33] = Prodrug conversion in recombinant human PON1 192QQ mutant expressed in FreeStyle 293-F cells measured per mg of protein by single-enzyme Michaelis-Menten model; format: ADME, cell-based
[34] = tested on: CCCc1nc(C(C)(C)O)c(C(=O)OCc2oc(=O)oc2C)n1Cc1ccc(-c2ccccc2-c2nnn[nH]2)cc1; experiment: Prodrug conversion in human serum albumin assessed as hydrolysis by single-enzyme Michaelis-Menten model; format: ADME

T1 sequence (P02768 whole entry): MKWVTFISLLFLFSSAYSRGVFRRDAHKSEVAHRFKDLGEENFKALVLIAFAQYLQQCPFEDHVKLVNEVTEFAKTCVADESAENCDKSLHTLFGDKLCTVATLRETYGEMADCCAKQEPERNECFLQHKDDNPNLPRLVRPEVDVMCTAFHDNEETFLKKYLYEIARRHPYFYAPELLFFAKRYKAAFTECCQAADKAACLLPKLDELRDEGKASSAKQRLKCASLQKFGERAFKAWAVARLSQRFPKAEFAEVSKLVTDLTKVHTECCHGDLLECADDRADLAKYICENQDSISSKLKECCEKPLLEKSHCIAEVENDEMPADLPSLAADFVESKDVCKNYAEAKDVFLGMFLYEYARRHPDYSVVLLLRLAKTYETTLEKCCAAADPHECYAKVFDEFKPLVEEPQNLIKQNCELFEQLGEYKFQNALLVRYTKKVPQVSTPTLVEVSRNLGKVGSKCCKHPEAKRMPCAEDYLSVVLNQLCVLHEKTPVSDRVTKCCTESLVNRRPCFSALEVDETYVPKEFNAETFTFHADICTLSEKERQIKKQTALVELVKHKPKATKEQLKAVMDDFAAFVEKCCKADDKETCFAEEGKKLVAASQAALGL

Km [1]: 157 µM
Activity [2]: 2.25 nmol/min
Activity [3]: 0.75 nmol/min
Activity [4]: 1.75 nmol/min
Activity [5]: 596 nmol/min
Km (Plasma [6]): 6.71 µM
Vmax/Km [7]: 0.79 mL/min
Activity [8]: 4.07 nmol/min
Activity (Plasma [9]): 7.91 nmol/min
Activity [10]: 13.9 nmol/min
Activity [11]: 0.65 nmol/min
Km [12]: 102 µM
Activity [13]: 0.131 nmol/min
Activity [14]: 9.5 nmol/min
Activity (Plasma [15]): 0.0918 nmol/min
Activity [16]: 0.516 nmol/min
Activity (Plasma [17]): 0.266 nmol/min
Activity (Albumin [18]): 0.0106 nmol/min
Activity [19]: 2.42 nmol/min
Vmax/Km (Plasma [20]): 2.77 mL/min
Activity (Albumin [21]): 0.0102 nmol/min
Activity [22]: 277 nmol/min
Vmax/Km (Albumin [23]): 0.00737 mL/min
Activity [24]: 20.6 nmol/min
Drug metabolism (Plasma [25]): metabolite_not_detected
Vmax/Km [26]: 1.37 mL/min
Vmax (Plasma [27]): 18.6 nmol/min
Vmax [28]: 140 nmol/min
Activity (Albumin [29]): 0.0164 nmol/min
Activity [30]: 12.6 nmol/min
Activity [31]: 9.04 nmol/min
Activity [32]: 35.6 nmol/min
Vmax [33]: 124 nmol/min
Molecule: CCCc1nc(C(C)(C)O)c(C(=O)OCc2oc(=O)oc2C)n1Cc1ccc(-c2ccccc2-c2nnn[nH]2)cc1 [OLMESARTAN MEDOXOMIL]

Molecule: Albumin (Homo sapiens)
Km [34]: 354 µM
Vmax [34]: 0.00261 µmol/min
